From patent US8802664B2 (Bioproject, priority 2010, dated 2014) come the findings set out here.

Where a name gives a salt, the structure may show the parent alone.

One may read the melting point as the temperature, or range, at which the solid turns liquid. On to `CCOC(=O)c1cccc(C(OC2CCN(C)CC2)c2nc3ccccc3s2)c1` (stereo not drawn) (as salt: oxalate) [Example 206, 3-[benzothiazol-2-yl(1-methylpiperidin-4-yloxy)methyl]benzoic acid ethyl ester], for which the melting point worked out at 104 °C.
The same measure for `COc1ccc(-c2cccc(C(NC3CCN(C)CC3)c3nc4ccccc4s3)c2)cc1` (stereo not drawn) (as salt: oxalate) [Example 211, [benzothiazol-2-yl(4′-methoxybiphenyl-3-yl)methyl](1-methylpiperidin-4-yl)amine]: 130 °C; for `Cc1ccc(C(OC2CCN(C)CC2)c2nc3ccccc3[nH]2)c(Cl)c1` (stereo not drawn) (as salt: oxalate) [Example 213, 2-[(2-chloro-4-methylphenyl)(1-methylpiperidin-4-yloxy)methyl]-1H-benzimidazole]: 96 °C; for `CN1CCC(OC(c2cccc(C(=O)N(C)Cc3ccccc3)c2)c2nc3ccccc3s2)CC1` (stereo not drawn) (as salt: oxalate) [Example 219, 3-[benzothiazol-2-yl(1-methylpiperidin-4-yloxy)methyl]-N-benzyl-N-methylbenzamide]: 103 °C.
In the case of `CN1CCC(OC(c2nc3ccccc3[nH]2)c2ccc(F)cc2F)CC1` (stereo not drawn) (as salt: oxalate) [Example 221, 2-[(2,4-difluorophenyl)(1-methylpiperidin-4-yloxy)methyl]-1H-benzimidazole], the melting point is 106 °C.
Take `CN1CCC(OC(c2cccc(C(=O)N(C)c3ccccc3)c2)c2nc3ccccc3s2)CC1` (stereo not drawn) (as salt: oxalate) [Example 223, 3-[benzothiazol-2-yl(1-methylpiperidin-4-yloxy)methyl]-N-methyl-N-phenylbenzamide]: the melting point is 125 °C.
The molecule `CN1CCC(OC(c2cccc(Cl)c2)c2nc3ccccc3[nH]2)CC1` (stereo not drawn) (as salt: oxalate) [Example 225, 2-[(3-chlorophenyl)(1-methylpiperidin-4-yloxy)methyl]-1H-benzimidazole] came in with a melting point of 158 °C.
For the molecule `CN1CCC(OC(c2ccc(Cl)cc2)c2nc3ccccc3[nH]2)CC1` (stereo not drawn) (as salt: oxalate) [Example 226, 2-[(4-chlorophenyl)(1-methylpiperidin-4-yloxy)methyl]-1H-benzimidazole], the melting point amounted to 175 °C.
`CN1CCC(OC(c2cccc(SC(C)(C)CCO)c2)c2nc3ccccc3s2)CC1` (stereo not drawn) (as salt: oxalate) [Example 242, 3-{3-[benzothiazol-2-yl(1-methylpiperidin-4-yloxy)methyl]phenylsulfanyl}-3-methyl-butan-1-ol] yielded a melting point of 80 °C.
Turning to `CN1CCC(OC(c2cccc(N3CCOCC3)c2)c2nc3ccccc3s2)CC1` (stereo not drawn) (as salt: oxalate) [Example 243, 2-[(1-methylpiperidin-4-yloxy)(3-morpholin-4-yl-phenyl)methyl]benzothiazole], the melting point came out at 111 °C.
`CN1CCC(OC(c2cccc(OCCO)c2)c2nc3ccccc3s2)CC1` (stereo not drawn) (as salt: oxalate) [Example 244, 2-{3-[benzothiazol-2-yl(1-methylpiperidin-4-yloxy)methyl]phenoxy}ethanol] had a melting point of 45 °C.
The molecule `CSCCOc1cccc(C(OC2CCN(C)CC2)c2nc3ccccc3s2)c1` (stereo not drawn) (as salt: oxalate) [Example 250, 2-{(1-methylpiperidin-4-yloxy)[3-(2-methylsulfanyl-ethoxy)phenyl]methyl}benzothiazole] had a melting point of 89 °C.
For the molecule `CN1CCC(OC(c2cccc(OCCCO)c2)c2nc3ccccc3s2)CC1` (stereo not drawn) (as salt: oxalate) [Example 258, 3-{3-[benzothiazol-2-yl(1-methylpiperidin-4-yloxy)methyl]phenoxy}propan-1-ol], the melting point turned out to be 79 °C.
The same measure for `CN1CCC(OC(c2cccc(OCc3ccncc3)c2)c2nc3ccccc3s2)CC1` (stereo not drawn) (as salt: oxalate) [Example 265, 2-{(1-methylpiperidin-4-yloxy)[3-(pyridin-4-ylmethoxy)phenyl]methyl}benzothiazole]: 101 °C.
`CN1CCC(OC(c2cccc(OCCCCO)c2)c2nc3ccccc3s2)CC1` (stereo not drawn) (as salt: oxalate) [Example 266, 4-{3-[benzothiazol-2-yl(1-methylpiperidin-4-yloxy)methyl]phenoxy}butan-1-ol] registered a melting point of 63 °C.
Take `CN1CCC(OC(c2cccc(OCc3ccco3)c2)c2nc3ccccc3s2)CC1` (stereo not drawn) (as salt: oxalate) [Example 267, 2-[[3-(furan-2-ylmethoxy)phenyl](1-methylpiperidin-4-yloxy)methyl]benzothiazole]: the melting point was 85 °C.
In turn, `CN1CCC(OC(c2cccc(SCCN)c2)c2nc3ccccc3s2)CC1` (stereo not drawn) (as salt: oxalate) [Example 269, 2-{3-[benzothiazol-2-yl(1-methylpiperidin-4-yloxy)methyl]phenylsulfanyl}ethylamine] had a melting point of 80 °C.
`CCSc1cc(C(OC2CCN(C)CC2)c2nc3ccccc3[nH]2)ccc1C` (stereo not drawn) (as salt: oxalate) [Example 274, 2-[(3-ethylsulfanyl-4-methylphenyl)(1-methylpiperidin-4-yloxy)methyl]-1H-benzimidazole] had a melting point of 142 °C.
`COCCOc1cccc(C(OC2CCN(C)CC2)c2nc3ccccc3s2)c1` (stereo not drawn) (as salt: oxalate) [Example 277, 2-[[3-(2-methoxyethoxy)phenyl](1-methylpiperidin-4-yloxy)methyl]benzothiazole]: the melting point turned out to be 80 °C.
`CNCCOc1cccc(C(OC2CCN(C)CC2)c2nc3ccccc3s2)c1` (stereo not drawn) (as salt: oxalate) [Example 279, (2-{3-[benzothiazol-2-yl(1-methylpiperidin-4-yloxy)methyl]phenoxy}ethyl)methyl-amine] showed a melting point of 125 °C.
Consider `CN1CCC(OC(c2cccc(OC(F)(F)F)c2)c2nc3ccccc3[nH]2)CC1` (stereo not drawn) (as salt: oxalate) [Example 280, 2-[(1-methylpiperidin-4-yloxy)(3-trifluoromethoxy-phenyl)methyl]-1H-benzimidazole], for which the melting point was 172 °C.
In turn, `CN1CCC(OC(c2nc3ccccc3s2)c2ccccc2Cl)CC1` (stereo not drawn) (as salt: oxalate) [Example 281, 2-[(2-Chlorophenyl)(1-methylpiperidin-4-yloxy)methyl]benzothiazole] registered a melting point of 163 °C.
The molecule `CN1CCC(OC(c2cccc(OCc3ccccn3)c2)c2nc3ccccc3s2)CC1` (stereo not drawn) (as salt: oxalate) [Example 283, 2-{(1-methylpiperidin-4-yloxy)[3-(pyridin-2-ylmethoxy)phenyl]methyl}benzothiazole] yielded a melting point of 158 °C.
Regarding `CN1CCC(OC(c2cccc(OCc3cccnc3)c2)c2nc3ccccc3s2)CC1` (stereo not drawn) (as salt: oxalate) [Example 284, 2-{(1-methylpiperidin-4-yloxy)[3-(pyridin-3-ylmethoxy)phenyl]methyl}benzothiazole], the melting point amounted to 102 °C.
Molecule `CN1CCC(OC(c2cccc(OCC3CCCCC3)c2)c2nc3ccccc3s2)CC1` (stereo not drawn) (as salt: oxalate) [Example 285, 2-[(3-Cyclohexylmethoxyphenyl)(1-methylpiperidin-4-yloxy)methyl]benzothiazole] came in with a melting point of 101 °C.
For the molecule `CCN1CCC(OC(c2cccc(OCCN)c2)c2nc3ccccc3s2)CC1` (stereo not drawn) (as salt: oxalate) [Example 290, 2-{3-[benzothiazol-2-yl(1-ethyl-piperidin-4-yloxy)methyl]phenoxy}ethylamine], the melting point amounted to 112 °C.
Consider `CN1CCC(OC(c2cccc(SCCCCCCO)c2)c2nc3ccccc3s2)CC1` (stereo not drawn) (as salt: oxalate) [Example 292, 6-{3-[benzothiazol-2-yl(1-methylpiperidin-4-yloxy)methyl]phenylsulfanyl}hexan-1-ol], for which the melting point is 80 °C.
Regarding `CN1CCC(OC(c2cccc(SCCCCCN)c2)c2nc3ccccc3s2)CC1` (stereo not drawn) (as salt: oxalate) [Example 305, 5-{3-[benzothiazol-2-yl(1-methylpiperidin-4-yloxy)methyl]phenylsulfanyl}pentylamine], the melting point came to 201 °C.
The same measure for `CN1CCC(OC(c2cccc(CCc3cn(C)cn3)c2)c2nc3ccccc3s2)CC1` (stereo not drawn) (as salt: oxalate) [Example 306, 2-[{3-[2-(1-methyl-1H-imidazol-4-yl)ethyl]phenyl}(1-methylpiperidin-4-yloxy)methyl]benzothiazole]: 80 °C.
For the molecule `CN1CCC(OC(c2cccc(OCCCN)c2)c2nc3ccccc3s2)CC1` (stereo not drawn) (as salt: oxalate) [Example 311, 3-{3-[benzothiazol-2-yl(1-methylpiperidin-4-yloxy)methyl]phenoxy}propylamine], the melting point is 120 °C.
`CN1CCC(OC(c2cccc(SCCCN)c2)c2nc3ccccc3s2)CC1` (stereo not drawn) (as salt: oxalate) [Example 314, 3-{3-[benzothiazol-2-yl(1-methylpiperidin-4-yloxy)methyl]phenylsulfanyl}propylamine] returned a melting point of 99 °C.
`CN1CCC(OC(c2cccc(C#CCCCCN)c2)c2nc3ccccc3s2)CC1` (stereo not drawn) (as salt: oxalate) [Example 319, 6-{3-[benzothiazol-2-yl(1-methylpiperidin-4-yloxy)methyl]phenyl}hex-5-ynylamine] registered a melting point of 135 °C.
For `CN1CCC(OC(c2cccc(OCCCCN3CCOCC3)c2)c2nc3ccccc3s2)CC1` (stereo not drawn) (as salt: oxalate) [Example 322, 2-{(1-methylpiperidin-4-yloxy)[3-(4-morpholin-4-yl-butoxy)phenyl]methyl}benzothiazole], the melting point was found to be 61 °C.
Regarding `CN1CCC(OC(c2cccc(N3CCCC3CO)c2)c2nc3ccccc3s2)CC1` (stereo not drawn) (as salt: oxalate) [Example 323, (1-{3-[benzothiazol-2-yl(1-methylpiperidin-4-yloxy)methyl]phenyl}pyrrolidin-2-yl)methanol], the melting point came to 76 °C.
The figure for `CN1CCC(OC(c2cccc(N3CCCC3CO)c2)c2nc3ccccc3s2)CC1` (stereo not drawn) (as salt: oxalate) [Example 324, (1-{3-[benzothiazol-2-yl(1-methylpiperidin-4-yloxy)methyl]phenyl}pyrrolidin-2-yl)methanol] is 99 °C; for `CN1CCC(OC(c2cccc(CCCCCCN)c2)c2nc3ccccc3s2)CC1` (stereo not drawn) (as salt: oxalate) [Example 325, 6-{3-[benzothiazol-2-yl(1-methylpiperidin-4-yloxy)methyl]phenyl}hexylamine] it is 115 °C.
